Experimental findings from publication PMC8063233 (The Journal of Clinical Endocrinology and Metabolism, 2020) are described below.

A short description of the data set: Plasma pharmacokinetics on day 7 of each treatment period. The following applies: day 7, verinurad + febuxostat with placebo (n = 36). The data set is classed as in vivo, human.

As to `CC(C)(Sc1ccncc1-c1ccc(C#N)c2ccccc12)C(=O)O` [Verinurad, verinurad], the “tmax, Median (min-max)” value is listed as 4.00 (3.00-8.08) h.
